{"source": "patent US4910296A", "about": "“Medicaments containing alpha 1 thymosin fragments and having an immunostimulant action, and fragments of alpha 1 thymosin” (priority 1980, dated 1990)", "key": {"[1]": {"system": "human peripheral lymphocytes", "assay_type": "cell-based", "details": "for Stimulation (%) of allogenic mixed culture: 1 microgram thymosin α1 per ml; for stimulation (+) / inhibition (-) of mixed lymphocyte culture: 1 μg fragment per ml, not blocked, culture without addition = 0%", "description": "(§1) The immunological test methods used were the E-rosette test according to Wara, Ammann et al. (N.Y. Acad. Sci. 249 (1975) 308 and N. Engl. J. Med. 292 (1975) 70) and the method of mixed lymphocyte culture, both methods involving additional inhibition of cellular RNS polymerase by alpha-amanitin. The E-rosette test is based on the fact that the percentage of E-rosette forming cells in peripheral human blood is a measure of the content of fully mature T-cells, which form with sheep's red blood cells characteristic aggregates which can be counted under the microscope.\nThe test in mixed lymophocyte cultures is based on the fact that T-cells are made to proliferate by stimulation with allogenic antigens. For the performance of the test, the lymphocytes of donor A (\"responder\") are incubated with those of donor B (\"stimulator\") for 4 to 5 days. Then ^3 H-thymidin is added and the rate of proliferation is measured on the basis of the increasing radioactivity of the cell culture due to the installation of the radioactive material. Since both populations A and B might be made to proliferate, resulting in an unclear effect, population B is blocked with mitomycin C in all metabolical activities. This test is routinely used before organ transplants to determine the immunological compatibility of donor and receiver tissues."}, "[2]": {"system": "peripheral human lymphocytes", "assay_type": "cell-based", "details": "for Relative number of E-rosettes (%): after inhibition with α-amanitin; for E-rosette number (%): cells blocked with α-amanitin = 0%, normal level without any addition = 100%, at optimum concentration; for Optimum concentr.: concentration giving the stated E-rosette number", "description": "as §1\nFor the performance of the E-rosette test, peripheral human lymphocytes are isolated by a gradient centrifugation. Their RNS polymerase is blocked by alpha-amanitin. […] This value is taken as 100% in a relative numerical scale, and after the Alpha-amanitin blockage it is taken to be 0%; see Table XII."}}, "note": "Where two headings read alike, the source gives them in different places. Residues, ends and D or L forms follow the SMILES beside them. No end group written: not given here."}
{"compound": "thymosin α1 (SDAAVDTSSEITTKDLKEKKEVVEEAEN; ends and bridges not checked; UniProt P06454 2-29, looked up) [Thymosin (synthetic), parent substance, totally synthetic thymosin α1, 28 amino acids, analytically pure, reference compound]", "values": [{"measurement": "Stimulation (%) of allogenic mixed culture", "setting": "[1]; cell pair AB, culture inhibited with 1 microgram α-amanitin per ml", "value": "+86%"}, {"measurement": "Stimulation (%) of allogenic mixed culture", "setting": "[1]; cell pair AB, culture not inhibited, stimulator cells blocked with mitomycin", "value": "+20%"}, {"measurement": "Stimulation (%) of allogenic mixed culture", "setting": "[1]; cell pair AD, culture inhibited with 1 microgram α-amanitin per ml", "value": "+37%"}, {"measurement": "Stimulation (%) of allogenic mixed culture", "setting": "[1]; cell pair AD, culture not inhibited", "value": "+4%"}, {"measurement": "Stimulation (%) of allogenic mixed culture", "setting": "[1]; cell pair BA, culture inhibited with 1 microgram α-amanitin per ml", "value": "+47%"}, {"measurement": "Stimulation (%) of allogenic mixed culture", "setting": "[1]; cell pair BA, culture not inhibited", "value": "+27%"}, {"measurement": "Stimulation (%) of allogenic mixed culture", "setting": "[1]; cell pair BD, culture inhibited with 1 microgram α-amanitin per ml", "value": "+51%"}, {"measurement": "Stimulation (%) of allogenic mixed culture", "setting": "[1]; cell pair BD, culture not inhibited", "value": "+45%"}, {"measurement": "Stimulation (%) of allogenic mixed culture", "setting": "[1]; cell pair DA, culture inhibited with 1 microgram α-amanitin per ml", "value": "+0%"}, {"measurement": "Stimulation (%) of allogenic mixed culture", "setting": "[1]; cell pair DA, culture not inhibited", "value": "+44%"}, {"measurement": "Stimulation (%) of allogenic mixed culture", "setting": "[1]; cell pair DB, culture inhibited with 1 microgram α-amanitin per ml", "value": "+1550%"}, {"measurement": "Stimulation (%) of allogenic mixed culture", "setting": "[1]; cell pair DB, culture not inhibited", "value": "+27%"}, {"measurement": "Relative number of E-rosettes (%)", "setting": "[2]; 0.25 μg per culture", "value": 39, "unit": "%"}, {"measurement": "Relative number of E-rosettes (%)", "setting": "[2]; 0.50 μg per culture", "value": 100, "unit": "%"}, {"measurement": "Relative number of E-rosettes (%)", "setting": "[2]; 1.00 μg per culture", "value": 64, "unit": "%"}, {"measurement": "Relative number of E-rosettes (%)", "setting": "[2]; 2.50 μg per culture", "value": 57, "unit": "%"}, {"measurement": "Relative number of E-rosettes (%)", "setting": "[2]; 5.00 μg per culture", "value": 33, "unit": "%"}, {"measurement": "E-rosette number (%)", "setting": "[2]", "value": 100, "unit": "%"}, {"measurement": "Optimum concentr.", "setting": "[2]", "value": 1.6, "unit": "μm"}]}
{"compound": "C[C@H](NC(=O)[C@@H](N)CCC(=O)O)C(=O)N[C@@H](CCC(=O)O)C(=O)N[C@@H](CC(N)=O)C(=O)O", "note": "[V] (H-EAEN-OH)", "values": [{"measurement": "stimulation (+) / inhibition (-) of mixed lymphocyte culture", "setting": "[1]; cell pair AB", "value": "+223%"}, {"measurement": "stimulation (+) / inhibition (-) of mixed lymphocyte culture", "setting": "[1]; cell pair CD", "value": "+45%"}, {"measurement": "stimulation (+) / inhibition (-) of mixed lymphocyte culture", "setting": "[1]; cell pair DC", "value": "+37%"}, {"measurement": "E-rosette number (%)", "setting": "[2]", "value": 42, "unit": "%"}, {"measurement": "Optimum concentr.", "setting": "[2]", "value": 113, "unit": "μm"}]}
{"compound": "KDAAVD [Ia]", "values": [{"measurement": "stimulation (+) / inhibition (-) of mixed lymphocyte culture", "setting": "[1]; cell pair AB", "value": -8, "unit": "%"}, {"measurement": "stimulation (+) / inhibition (-) of mixed lymphocyte culture", "setting": "[1]; cell pair BA", "value": -15, "unit": "%"}, {"measurement": "stimulation (+) / inhibition (-) of mixed lymphocyte culture", "setting": "[1]; cell pair CD", "value": -73, "unit": "%"}, {"measurement": "stimulation (+) / inhibition (-) of mixed lymphocyte culture", "setting": "[1]; cell pair DC", "value": -31, "unit": "%"}, {"measurement": "E-rosette number (%)", "setting": "[2]", "value": 93, "unit": "%"}, {"measurement": "Optimum concentr.", "setting": "[2]", "value": 16, "unit": "μm"}]}
{"compound": "TSSEIT [II]", "values": [{"measurement": "stimulation (+) / inhibition (-) of mixed lymphocyte culture", "setting": "[1]; cell pair BA", "value": -18, "unit": "%"}, {"measurement": "stimulation (+) / inhibition (-) of mixed lymphocyte culture", "setting": "[1]; cell pair CD", "value": -53, "unit": "%"}, {"measurement": "stimulation (+) / inhibition (-) of mixed lymphocyte culture", "setting": "[1]; cell pair DC", "value": "+30%"}, {"measurement": "E-rosette number (%)", "setting": "[2]", "value": 29, "unit": "%"}, {"measurement": "Optimum concentr.", "setting": "[2]", "value": 80, "unit": "μm"}]}
{"compound": "Ac-SDAAVDTSSEIT [IX]", "values": [{"measurement": "stimulation (+) / inhibition (-) of mixed lymphocyte culture", "setting": "[1]; cell pair AB", "value": -74, "unit": "%"}, {"measurement": "stimulation (+) / inhibition (-) of mixed lymphocyte culture", "setting": "[1]; cell pair CD", "value": -63, "unit": "%"}, {"measurement": "stimulation (+) / inhibition (-) of mixed lymphocyte culture", "setting": "[1]; cell pair DC", "value": -77, "unit": "%"}, {"measurement": "E-rosette number (%)", "setting": "[2]", "value": 40, "unit": "%"}, {"measurement": "Optimum concentr.", "setting": "[2]", "value": 4, "unit": "μm"}]}
{"compound": "TKDLKEKKEVVEEAEN [VII]", "values": [{"measurement": "E-rosette number (%)", "setting": "[2]", "value": 41, "unit": "%"}, {"measurement": "Optimum concentr.", "setting": "[2]", "value": 6, "unit": "μm"}]}
{"compound": "KEVVEEAEN [VI]", "values": [{"measurement": "stimulation (+) / inhibition (-) of mixed lymphocyte culture", "setting": "[1]; cell pair AB", "value": "+153%"}, {"measurement": "stimulation (+) / inhibition (-) of mixed lymphocyte culture", "setting": "[1]; cell pair CD", "value": "+57%"}, {"measurement": "E-rosette number (%)", "setting": "[2]", "value": 16, "unit": "%"}, {"measurement": "Optimum concentr.", "setting": "[2]", "value": 10, "unit": "μm"}]}
